Test results from patent US20260042764A1, “COMPOSITIONS AND METHODS FOR INHIBITION OF KRAS” (TheRas, Inc., priority 2022, published 2026).

The compounds below were run against T1, Avi-KRAS G12D (1-169) GppNHp/RAF1 RBD-3xFLAG (52-151) (Homo sapiens, UniProt P01116, G12D) (assay: Raf1-KRAS G12D-GppNHP disruption HTRF assay (Biological Example 1)). Conditions: KRAS G12D-GppNHp/RAF1 RBD HTRF.
T1 construct: Avi-KRAS G12D (1-169)
Type: binding
Method in brief: (§1)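 Measured with a KRAS/RAF1 HTRF assay at pH 7.5 in 10% DMSO, with two 1 h room-temperature incubations with shaking.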

T1 sequence (P01116 1-169 isoform P01116-2 G12D): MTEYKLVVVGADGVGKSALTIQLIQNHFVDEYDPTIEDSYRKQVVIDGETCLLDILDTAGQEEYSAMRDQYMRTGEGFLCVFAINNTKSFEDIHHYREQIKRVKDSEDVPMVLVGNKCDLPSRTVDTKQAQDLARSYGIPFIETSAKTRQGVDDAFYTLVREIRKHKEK

| SMILES | IC50 |
| --- | --- |
| C[C@]1(CO)CCN1c1nc(OC[C@@]23CCCN2C[C@H](F)C3)nc2c(F)c(-c3ccc(F)c4sc(N)c(C#N)c34)c(C(F)(F)F)cc12 [Compound 429] | 100 to 1000 nM |
| N#Cc1c(N)sc2c(F)ccc(-c3c(C(F)(F)F)cc4c(N5CCN6C(=O)CCC6C5)nc(OCC56CCCN5CC(F)C6)nc4c3F)c12 (stereo not drawn) [Compound 430] | 100 to 1000 nM |
| N#Cc1c(N)sc2c(F)ccc(-c3c(C(F)(F)F)cc4c(N5CCN6C(=O)OCC6C5)nc(OCC56CCCN5CC(F)C6)nc4c3F)c12 (stereo not drawn) [Compound 431] | 1000 to 10000 nM |
| CCC(=O)N1CC[C@@H](N(C)c2nc(OC[C@@]34CCCN3C[C@H](F)C4)nc3c(F)c(-c4ccc(F)c5sc(N)c(C#N)c45)c(C(F)(F)F)cc23)[C@H]1CC [Compound 432] | 1000 to 10000 nM |
| CC[C@@H]1[C@H](N(C)c2nc(OC[C@@]34CCCN3C[C@H](F)C4)nc3c(F)c(-c4ccc(F)c5sc(N)c(C#N)c45)c(C(F)(F)F)cc23)CCN1C(=O)C(C)C [Compound 433] | 1000 to 10000 nM |
| CC[C@@H]1[C@H](N(C)c2nc(OC[C@@]34CCCN3C[C@H](F)C4)nc3c(F)c(-c4ccc(F)c5sc(N)c(C#N)c45)c(C(F)(F)F)cc23)CCN1C(=O)C1CC1 [Compound 434] | 1000 to 10000 nM |

What follows are compounds tested against T2, Avi-KRAS G12R (1-169) GppNHp/RAF1 RBD-3xFLAG (52-151) (Homo sapiens, UniProt P01116, G12R) (assay: Raf1-KRAS G12R-GppNHP disruption HTRF assay (Biological Example 1)). Conditions: KRAS G12R-GppNHp/RAF1 RBD HTRF.
T2 construct: Avi-KRAS G12R (1-169)
T2 sequence (P01116 1-169 isoform P01116-2 G12R): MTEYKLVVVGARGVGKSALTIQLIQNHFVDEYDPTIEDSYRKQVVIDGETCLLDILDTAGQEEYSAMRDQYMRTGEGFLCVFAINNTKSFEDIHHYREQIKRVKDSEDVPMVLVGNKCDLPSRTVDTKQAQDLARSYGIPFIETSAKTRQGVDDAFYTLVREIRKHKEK
Type: binding
Method in brief: as §1

| SMILES | IC50 |
| --- | --- |
| C[C@]1(CO)CCN1c1nc(OC[C@@]23CCCN2C[C@H](F)C3)nc2c(F)c(-c3ccc(F)c4sc(N)c(C#N)c34)c(C(F)(F)F)cc12 [Compound 429] | 1000 to 10000 nM |
| N#Cc1c(N)sc2c(F)ccc(-c3c(C(F)(F)F)cc4c(N5CCN6C(=O)CCC6C5)nc(OCC56CCCN5CC(F)C6)nc4c3F)c12 (stereo not drawn) [Compound 430] | 100 to 1000 nM |
| N#Cc1c(N)sc2c(F)ccc(-c3c(C(F)(F)F)cc4c(N5CCN6C(=O)OCC6C5)nc(OCC56CCCN5CC(F)C6)nc4c3F)c12 (stereo not drawn) [Compound 431] | 1000 to 10000 nM |
| CCC(=O)N1CC[C@@H](N(C)c2nc(OC[C@@]34CCCN3C[C@H](F)C4)nc3c(F)c(-c4ccc(F)c5sc(N)c(C#N)c45)c(C(F)(F)F)cc23)[C@H]1CC [Compound 432] | 100 to 1000 nM |
| CC[C@@H]1[C@H](N(C)c2nc(OC[C@@]34CCCN3C[C@H](F)C4)nc3c(F)c(-c4ccc(F)c5sc(N)c(C#N)c45)c(C(F)(F)F)cc23)CCN1C(=O)C(C)C [Compound 433] | 1000 to 10000 nM |
| CC[C@@H]1[C@H](N(C)c2nc(OC[C@@]34CCCN3C[C@H](F)C4)nc3c(F)c(-c4ccc(F)c5sc(N)c(C#N)c45)c(C(F)(F)F)cc23)CCN1C(=O)C1CC1 [Compound 434] | 1000 to 10000 nM |

Each compound was assayed against T3, Avi-KRAS G12V (1-169) GppNHp/RAF1 RBD-3xFLAG (52-151) (Homo sapiens, UniProt P01116, G12V) (assay: Raf1-KRAS G12V-GppNHP disruption HTRF assay (Biological Example 1)). Conditions: KRAS G12V-GppNHp/RAF1 RBD HTRF.
T3 construct: Avi-KRAS G12V (1-169)
T3 sequence (P01116 1-169 isoform P01116-2 G12V): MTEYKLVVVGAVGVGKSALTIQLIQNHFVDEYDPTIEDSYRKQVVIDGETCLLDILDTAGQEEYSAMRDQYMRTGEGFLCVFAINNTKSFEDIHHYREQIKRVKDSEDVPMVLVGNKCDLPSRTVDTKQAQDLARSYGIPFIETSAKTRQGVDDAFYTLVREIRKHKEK
Type: binding
Method in brief: as §1

| SMILES | IC50 |
| --- | --- |
| C[C@]1(CO)CCN1c1nc(OC[C@@]23CCCN2C[C@H](F)C3)nc2c(F)c(-c3ccc(F)c4sc(N)c(C#N)c34)c(C(F)(F)F)cc12 [Compound 429] | 1000 to 10000 nM |
| N#Cc1c(N)sc2c(F)ccc(-c3c(C(F)(F)F)cc4c(N5CCN6C(=O)CCC6C5)nc(OCC56CCCN5CC(F)C6)nc4c3F)c12 (stereo not drawn) [Compound 430] | 1000 to 10000 nM |
| N#Cc1c(N)sc2c(F)ccc(-c3c(C(F)(F)F)cc4c(N5CCN6C(=O)OCC6C5)nc(OCC56CCCN5CC(F)C6)nc4c3F)c12 (stereo not drawn) [Compound 431] | 1000 to 10000 nM |
| CCC(=O)N1CC[C@@H](N(C)c2nc(OC[C@@]34CCCN3C[C@H](F)C4)nc3c(F)c(-c4ccc(F)c5sc(N)c(C#N)c45)c(C(F)(F)F)cc23)[C@H]1CC [Compound 432] | 1000 to 10000 nM |
| CC[C@@H]1[C@H](N(C)c2nc(OC[C@@]34CCCN3C[C@H](F)C4)nc3c(F)c(-c4ccc(F)c5sc(N)c(C#N)c45)c(C(F)(F)F)cc23)CCN1C(=O)C(C)C [Compound 433] | 1000 to 10000 nM |
| CC[C@@H]1[C@H](N(C)c2nc(OC[C@@]34CCCN3C[C@H](F)C4)nc3c(F)c(-c4ccc(F)c5sc(N)c(C#N)c45)c(C(F)(F)F)cc23)CCN1C(=O)C1CC1 [Compound 434] | 1000 to 10000 nM |

Each compound was assayed against T4, Avi-KRAS WT (1-169) GppNHp/RAF1 RBD-3xFLAG (52-151) (Homo sapiens, UniProt P01116) (assay: Raf1-KRAS WT-GppNHP disruption HTRF assay (Biological Example 1)). Conditions: KRAS WT-GppNHp/RAF1 RBD HTRF.
T4 construct: Avi-KRAS WT (1-169)
T4 sequence (P01116 1-169 isoform P01116-2): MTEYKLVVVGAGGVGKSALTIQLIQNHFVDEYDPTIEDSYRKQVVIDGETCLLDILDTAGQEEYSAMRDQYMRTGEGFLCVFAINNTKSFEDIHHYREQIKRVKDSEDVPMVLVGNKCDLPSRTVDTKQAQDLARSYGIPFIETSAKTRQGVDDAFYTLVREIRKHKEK
Type: binding
Method in brief: as §1

| SMILES | IC50 |
| --- | --- |
| C[C@]1(CO)CCN1c1nc(OC[C@@]23CCCN2C[C@H](F)C3)nc2c(F)c(-c3ccc(F)c4sc(N)c(C#N)c34)c(C(F)(F)F)cc12 [Compound 429] | 1000 to 10000 nM |
| N#Cc1c(N)sc2c(F)ccc(-c3c(C(F)(F)F)cc4c(N5CCN6C(=O)CCC6C5)nc(OCC56CCCN5CC(F)C6)nc4c3F)c12 (stereo not drawn) [Compound 430] | 100 to 1000 nM |
| N#Cc1c(N)sc2c(F)ccc(-c3c(C(F)(F)F)cc4c(N5CCN6C(=O)OCC6C5)nc(OCC56CCCN5CC(F)C6)nc4c3F)c12 (stereo not drawn) [Compound 431] | 1000 to 10000 nM |
| CCC(=O)N1CC[C@@H](N(C)c2nc(OC[C@@]34CCCN3C[C@H](F)C4)nc3c(F)c(-c4ccc(F)c5sc(N)c(C#N)c45)c(C(F)(F)F)cc23)[C@H]1CC [Compound 432] | 100 to 1000 nM |
| CC[C@@H]1[C@H](N(C)c2nc(OC[C@@]34CCCN3C[C@H](F)C4)nc3c(F)c(-c4ccc(F)c5sc(N)c(C#N)c45)c(C(F)(F)F)cc23)CCN1C(=O)C(C)C [Compound 433] | 1000 to 10000 nM |
| CC[C@@H]1[C@H](N(C)c2nc(OC[C@@]34CCCN3C[C@H](F)C4)nc3c(F)c(-c4ccc(F)c5sc(N)c(C#N)c45)c(C(F)(F)F)cc23)CCN1C(=O)C1CC1 [Compound 434] | 100 to 1000 nM |

Each compound was assayed on GP2d cells (KRAS G12D) (assay: Cell-based pERK HTRF assay in GP2d cell (Biological Example 2)). Conditions: GP2d (KRAS G12D) cells, pERK HTRF.
Method in brief: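 60 min compound, 0.25% DMSO, 9-pt half-log curve from 1 μM or 100 nM; DMEM/10% FBS.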

| SMILES | IC50 |
| --- | --- |
| N#Cc1c(N)sc2c(F)ccc(-c3c(C(F)(F)F)cc4c(N5CCN6C(=O)CCC6C5)nc(OCC56CCCN5CC(F)C6)nc4c3F)c12 (stereo not drawn) [Compound 430] | < 100 nM |
| N#Cc1c(N)sc2c(F)ccc(-c3c(C(F)(F)F)cc4c(N5CCN6C(=O)OCC6C5)nc(OCC56CCCN5CC(F)C6)nc4c3F)c12 (stereo not drawn) [Compound 431] | < 100 nM |

Same assay, conditions: GP2d, GP2d (KRAS G12D) cells, pERK HTRF

| SMILES | IC50 |
| --- | --- |
| C[C@]1(CO)CCN1c1nc(OC[C@@]23CCCN2C[C@H](F)C3)nc2c(F)c(-c3ccc(F)c4sc(N)c(C#N)c34)c(C(F)(F)F)cc12 [Compound 429] | < 100 nM |
| CCC(=O)N1CC[C@@H](N(C)c2nc(OC[C@@]34CCCN3C[C@H](F)C4)nc3c(F)c(-c4ccc(F)c5sc(N)c(C#N)c45)c(C(F)(F)F)cc23)[C@H]1CC [Compound 432] | < 100 nM |
| CC[C@@H]1[C@H](N(C)c2nc(OC[C@@]34CCCN3C[C@H](F)C4)nc3c(F)c(-c4ccc(F)c5sc(N)c(C#N)c45)c(C(F)(F)F)cc23)CCN1C(=O)C(C)C [Compound 433] | 100 to 1000 nM |
| CC[C@@H]1[C@H](N(C)c2nc(OC[C@@]34CCCN3C[C@H](F)C4)nc3c(F)c(-c4ccc(F)c5sc(N)c(C#N)c45)c(C(F)(F)F)cc23)CCN1C(=O)C1CC1 [Compound 434] | 100 to 1000 nM |

What follows are compounds tested on SW620 cells (KRAS G12V) (assay: Cell-based pERK HTRF assay in SW620 cell (Biological Example 4)). Conditions: Homo sapiens, SW-620, SW620 (KRAS G12V) cells, pERK HTRF.
Method in brief: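 SW620 cells were treated for 4 h with compound in a 9-point half-log series from 1 μM top (0.25% DMSO), then lysed. Phospho-ERK was detected by HTRF with d2 and Eu cryptate antibodies after 4–24 h at room temperature, read at 615 nm emission.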

| SMILES | IC50 |
| --- | --- |
| C[C@]1(CO)CCN1c1nc(OC[C@@]23CCCN2C[C@H](F)C3)nc2c(F)c(-c3ccc(F)c4sc(N)c(C#N)c34)c(C(F)(F)F)cc12 [Compound 429] | < 100 nM |
| CCC(=O)N1CC[C@@H](N(C)c2nc(OC[C@@]34CCCN3C[C@H](F)C4)nc3c(F)c(-c4ccc(F)c5sc(N)c(C#N)c45)c(C(F)(F)F)cc23)[C@H]1CC [Compound 432] | 100 to 1000 nM |
| CC[C@@H]1[C@H](N(C)c2nc(OC[C@@]34CCCN3C[C@H](F)C4)nc3c(F)c(-c4ccc(F)c5sc(N)c(C#N)c45)c(C(F)(F)F)cc23)CCN1C(=O)C(C)C [Compound 433] | 100 to 1000 nM |
| CC[C@@H]1[C@H](N(C)c2nc(OC[C@@]34CCCN3C[C@H](F)C4)nc3c(F)c(-c4ccc(F)c5sc(N)c(C#N)c45)c(C(F)(F)F)cc23)CCN1C(=O)C1CC1 [Compound 434] | 100 to 1000 nM |

Same assay, conditions: SW620 (KRAS G12V) cells, pERK HTRF

| SMILES | IC50 |
| --- | --- |
| N#Cc1c(N)sc2c(F)ccc(-c3c(C(F)(F)F)cc4c(N5CCN6C(=O)CCC6C5)nc(OCC56CCCN5CC(F)C6)nc4c3F)c12 (stereo not drawn) [Compound 430] | < 100 nM |
| N#Cc1c(N)sc2c(F)ccc(-c3c(C(F)(F)F)cc4c(N5CCN6C(=O)OCC6C5)nc(OCC56CCCN5CC(F)C6)nc4c3F)c12 (stereo not drawn) [Compound 431] | < 100 nM |
